Measured values taken from patent EP0647227B1, “PURINONE ANTIANGINAL AGENTS” (Pfizer Limited, priority 1992, dated 1994).

Tested on: calcium/calmodulin (Ca/CAM)-independent cGMP PDE
Test: Phosphodiesterase activity: in vitro PDE inhibition, modified "batch" method of Thompson and Appleman
Format: biochemical, rabbit
Conditions: selectivity between Ca/CAM-independent cGMP PDE and cGMP-inhibited cAMP PDE (cAMP IC50 / cGMP IC50)
Description: The calcium/calmodulin (Ca/CAM)-independent cGMP PDE and the cGMP-inhibited cAMP PDE enzymes are obtained from rabbit platelets whilst, of the four major PDE enzymes of the rat kidney, the Ca/CAM-dependent cGMP PDE (fraction I) is isolated.

SMILES: CCCn1cnc2c(=O)[nH]c(-c3cc(S(=O)(=O)N4CCNCC4)ccc3OCC)nc21 [Example 2, 2-[2-Ethoxy-5-(1-piperazinylsulphonyl)phenyl]-9-n-propylpurin-6-one]
- SELECTIVITY RATIO: 6,250

SMILES: CCCn1cnc2c(=O)[nH]c(-c3ccccc3OCC)nc21 [Example 1, 2-(2-Ethoxyphenyl)-9-n-propylpurin-6-one]
- SELECTIVITY RATIO: >1,030

SMILES: CCCn1cnc2c(=O)[nH]c(-c3cc(S(=O)(=O)N4CCN(C)CC4)ccc3OCC)nc21 [Example 3, 2-[2-Ethoxy-5-(4-methyl-1-piperazinylsulphonyl)phenyl]-9-n-propylpurin-6-one]
- S[…]: 12,500
